Data published in US20260256922A1, “PRODRUGS USEFUL FOR REDUCING ANTHRACYCLINE CARDIOTOXICITY” (WAKE FOREST UNIVERSITY HEALTH SCIENCES, priority 2022, published 2026).

System: H9C2 cardiomyoblasts
Assay: Uptake into H9C2 cardiomyoblasts by live-cell confocal microscopy
Assay type: cell-based, rat
Protocol: FIG. 4. Uptake of DOX and prodrugs c1 and c2 by H9C2 cardiomyoblasts. H9C2 cells cultures grown overnight on chambered coverslips in media with 10% serum were switched to Fluorobrite DMEM imaging media supplemented with 5% serum and prepared for live-cell imaging on a Zeiss LSM 880 confocal microscope, then 10 µM of c1, c2, or DOX was added and images were taken every 10 min (averaged every 30 min) for 18 h. Approximately 20 cells present in each field of view were averaged for each sample and time point; normalized and averaged data from two replicates each±SEM were included for c1 and DOX. An earlier independent trial yielded very similar results (Fig. S1).
Uptake of DOX and prodrugs into H9C2 cardiomyoblasts. Before comparing the biological effects of treatments by DOX and prodrugs, it was important to know their time dependence of accumulation into the H9C2 cardiomyoblasts under investigation. For this, confocal microscopy of live cells in culture was used to track in real time the accumulation of the fluorescent molecules into the cells, allowing direct comparisons between c1, c2 and Dox. […] Thus, any biological effects observed using c1 rather than DOX will not be due to limited cellular uptake.
To evaluate drug uptake, H9C2 cells were plated at a density of 20,000 per well on 24 well #1.5 polymer chambered coverslips (Ibidi) in media including 10% FBS and allowed to adhere for ~20 h. Prior to imaging analysis, the media was replaced with Fluorobrite DMEM imaging media (Gibco) supplemented with 5% FBS. To 1 mL of media in each well was added either vehicle (DMSO), or a 20 mM stock solution of c1, c2, or DOX to give final concentrations of 10 or 20 µM drug and 0.1% DMSO. […] DOX and the prodrugs were detected with excitation by a 458 nm laser at 0.3% and emission from 535-648 nm.
Each position consisted of a 3 slice z-stack that was compressed with a maximum intensity projection for analysis. […] The mean intensity for both channels was calculated, normalized, and then averaged to 30 min time points.

For `COc1cccc2c1C(=O)c1c(O)c3c(c(O)c1C2=O)C[C@@](O)(C(=O)CO)C[C@@H]3O[C@H]1C[C@H](NC(=S)OCc2ccc(B3OC(C)(C)C(C)(C)O3)cc2)[C@H](O)[C@H](C)O1` [c1], the “time to maximal signal (cell accumulation)” value (H9C2 cells, 10 μM, fluorescence) was ~ 2 h and the “accumulation in cells compared with DOX” value (imaging over 18 h) was “accumulated rapidly”.
